Measurements as given in patent US10849865B2, “Method of reducing neuronal cell death with haloalkylamines” (THE UNIVERSITY OF MONTANA, priority 2013, dated 2020).
“Also recorded” adds a separate entry of the source.

Columns and labels:
calmodulin (CaM)/CaMKII = calmodulin (CaM)/CaMKII (Homo sapiens, UniProt P0DP23); settings: cited from earlier work
[1] = tested on: α-1 and α-2 adrenergic receptors; settings: with secondary α-2 antagonism; cited from earlier work
[2] = tested on: rat lateral fluid percussion injury (LFP) model of severe TBI; assay: Foot fault assessment after severe TBI (lateral fluid percussion); assay type: in vivo
Procedure: Briefly, rats were set on an elevated grid. With each weight-bearing step, the paw may fall or slip off the wire grid. Each time the left forelimb (affected by damage to the right hemisphere) missed a placement on the wire rack it was recorded as a foot fault. The total number of steps (movement of each forelimb) that the rat used to cross the grid was counted, and the total numbers of foot faults for each forelimb was recorded.
(§1) We selected the test dose for phenoxybenzamine based on current FDA approved levels. […] Assuming a typical adult weighs 70 kg, this represents 1.7 mg/kg body weight. Therefore, we selected a slightly lower, single, intravenous dose of 1 mg/kg body weight. This dose was administered at the clinically relevant time point of 8 hours after severe TBI. Therapeutic effectiveness was determined based on behavioral and cognitive outcomes.

IL-1β = assay: Gene array analysis of cortical tissue after severe TBI: IL-1β; settings: 32 hours after the injury (treatment at 8 hours + 24 hours); versus uninjured controls
From the text: (§2) For experiments requiring TBI, a rat model was used. Male Wistar rats (350-500 g) were obtained from Charles River Laboratories (Wilmington, Mass.) and housed with a 12-hour light/dark cycle and ad libitum access to food and water. Severe TBI was induced using the lateral fluid percussion (LFP) procedure as previously described (Rau et al., 2012, J Trauma and Acute Care Surgery 73:S165). Briefly, a 5 mm trephination was made over the right hemisphere equidistant from the lambda and the bregma. Animals were given a fluid pulse to the brain at 1.9-2.3 atm of pressure for 20 msec. All animals experienced apnea and were manually ventilated until normal breathing occurred. […] Saline treated animals underwent the same tail vein injection procedure receiving only pre-warmed saline.
(§3) This time point was chosen in an effort to detect possible gene changes that would affect the development of secondary damage.

[3] = tested on: α-1 and α-2 adrenergic receptors; settings: following intravenous administration; cited from earlier work
MyD88 = assay: Gene array analysis of cortical tissue after severe TBI: MyD88; settings: 32 hours after the injury (treatment at 8 hours + 24 hours); versus uninjured controls
From the text: as §2, §3

[4] = tested on: rat hippocampal slice cultures exposed to oxygen-glucose deprivation (OGD); assay: Rat hippocampal slice culture oxygen-glucose deprivation (RHSC-OGD) model, propidium iodide staining; assay type: cell-based
Procedure: All experimental animal procedures were approved by the University of Montana Institutional Animal Care and Use Committee in accordance with National Institutes of Health guide for the care and use of Laboratory animals (NIH Publications No. 8023). Hippocampal slice cultures were prepared from the brains of 7-day-old Sprague-Dawley rat pups as previously described (Selkirk et al., 2005, Eur J Neur 21:2291). After 7 days in culture, slices were exposed to oxygen-glucose deprivation (OGD). A glucose free balanced salt solution (BSS) composed of 120 mM NaCl, 5 mM KCl, 1.25 mM NaH2PO4, 2 mM MgSO4, 2 mM CaCl2, 25 mM NaHCO3, 20 mM HEPES, 25 mM sucrose; pH 7.3 was bubbled for one hour with 5% CO2/95% N2 at 10 L/hour. Slices were washed 6 times in deoxygenated SBSS to remove residual glucose, transferred into deoxygenated SBSS, and placed in a 37° C. chamber (Pro-Ox) with an oxygen feedback sensor that maintained gas levels at 0.1% O2, 5% CO2, 94.4% Nitrogen for 60 min. After OGD, the slices were immediately transferred back into pre-warmed Neurobasal media (containing B27 without anti-oxidants) under normal oxygen conditions. […] Neuronal damage was determined by staining slices with propidium iodide (PI; Molecular Probes, Eugene, Oreg.) and quantifying the relative fluorescence intensity (excitation 540/emission 630) using ImagePro Plus software (Media Cybernetics, Silver Springs, Md.). Propidium iodide […] was added to the media at a concentration of 2 μM (Noraberg et al., 1999, Brain Research Protocols 3:278), 4 hours prior to OGD. Images were taken of the hippocampal slices prior to OGD to establish baseline fluorescence. After OGD, slices were placed in normal media containing 2 μM PI and imaged again at 24 hours post-OGD using fluorescence optics with an Olympus IMT-2 microscope and a Hamamatsu camera. The total fluorescent intensity in each slice was determined using ImagePro Plus software (Media Cybernetics, Silver Springs, Md.) and all values were expressed as the percent change from untreated slices exposed to OGD.

α-1 receptors = settings: 8 days after a single administration; cited from earlier work
[5] = stuffy nose, mild drowsiness, blurred vision, and upset stomach; cited from earlier work
[6] = tested on: rat lateral fluid percussion injury (LFP) model of severe TBI; assay: Neurological severity scoring (NSS) after severe TBI (lateral fluid percussion); assay type: in vivo
Procedure: Assessments were conducted on days 1, 7, 14, 21, and 30 by a blinded observer. Animals were scored from 0-16 with 0 indicating no impairment, and 16 indicating maximal impairment. Scoring criteria for a severe TBI was 16-10, a moderate TBI was 9-5 and a mild TBI was 4-1. Animals scoring and NSS of 9 or less on day 1 were identified as having a moderate/mild injury and were excluded.
as §1

CCL2 = assay: Gene array analysis of cortical tissue after severe TBI: CCL2; settings: 32 hours after the injury (treatment at 8 hours + 24 hours); versus uninjured controls
From the text: as §2, §3

[7] = tested on: rat lateral fluid percussion injury (LFP) model of severe TBI; assay: Morris water maze (MWM) cognitive function after severe TBI; assay type: in vivo
Procedure: The Morris water maze (MWM) was used to assess the impact of phenoxybenzamine on cognitive function (learning and memory) following TBI. […] Pre-acclimation began on day 24 post-TBI. The training phase began on day 25 post-injury, and the probe trial was conducted on day 30 post-injury.

[8] = 1 mg/kg body weight, over 30 days after TBI
[9] = 1 mg/kg i.v. 8 hours after severe TBI, 24 hours or 7 days after the TBI
[10] = administered 8 hours after TBI, probe trial day 30 post-injury

Which “inhibition of CaM/CaMKII activity” value (calmodulin (CaM)/CaMKII) does the source give for `CC(COc1ccccc1)N(CCCl)Cc1ccccc1` (stereo not shown) [phenoxybenzamine] here?
Its value is “potent inhibitor”.

What about the α-1 adrenergic antagonism [1] of the same compound?
Its α-1 adrenergic antagonism is “potent α-1 adrenergic antagonist”.

What about the “behavioral function, foot fault assessments (FIG. 3B)” value [2, 8] of the same compound?
Its value is “significantly improved behavioral function”.

What about the “foot fault scoring, difference from saline treated animals” value [2, 9] of the same compound?
The value was “no significant differences”.

And the “IL-1β expression in cortical tissue after severe TBI” value (IL-1β)?
The value was “no significant increase; also recorded: did not differ from uninjured controls; also recorded: did not have a significant increase”.

And the “time to peak effect of receptor antagonism” value [3]?
The value was “approximately 1 hour”.

What about the “MyD88 expression in cortical tissue after severe TBI” value (MyD88) of the same compound?
Its value is “no significant increase; also recorded: did not differ from uninjured controls; also recorded: equivalent to uninjured controls”.

What about the “prevention of neuronal death from OGD (propidium iodide fluorescence)” value ([4]; 100 μM added at 2, 4, and 8 hours post-OGD) of the same compound?
The value was “prevented neuronal death from OGD in all regions of the hippocampus”.

And the “prevention of neuronal death from OGD (propidium iodide fluorescence)” value ([4]; 100 μM added at 16 hours post-OGD)?
Its value is “prevented neuronal death only in the CA1 region of the hippocampus”.

And the “neuroprotection when delivered after OGD (FIG. 2)” value ([4]; delivered up to 16 hours after OGD)?
Its value is “significant neuroprotection”.

And the α-1 receptors recovered (α-1 receptors)?
Its α-1 receptors recovered is 50%.

And the side effects [5]?
Its side effects is “minimal”.

What about the “behavioral function, neurological severity score (FIG. 3A)” value [6, 8] of the same compound?
Its value is “significantly improved behavioral function”.

What about the “NSS, difference from saline treated animals” value [6, 9] of the same compound?
The value was “no significant differences”.

What about the “CCL2 expression in cortical tissue after severe TBI” value (CCL2) of the same compound?
Its value is “no significant increase; also recorded: did not differ from uninjured controls”.

What about the “learning and memory after severe TBI (FIG. 4)” value ([7]; Morris water maze latency and target quadrant time) of the same compound?
Its value is “significantly improved learning and memory”.

What about the “MWM learning compared to un-injured sham controls” value ([7]; administered 8 hours after TBI, any of the training days) of the same compound?
Its value is “not significantly different from the un-injured sham control animals”.

What about the “MWM probe trial compared to un-injured sham controls” value [7, 10] of the same compound?
The value was “did not differ from un-injured sham controls”.

What about the “MWM probe trial, time spent searching the target quadrant” value [7, 10] of the same compound?
The value was “approximately 28%”.
